Results from PubChem BioAssay (NCI).
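Compound exposure: 48 hours, 5 concentrations, 96-well plates. TGI marks complete inhibition of growth.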

Legend:
Experiment in all cases: NCI anticancer screen, dose series, 48 h
[1] = tested on: 786-0 renal
[2] = tested on: A498 renal
[3] = tested on: A549 NSCLC
[4] = tested on: ACHN renal
[5] = tested on: CAKI-1 renal
[6] = tested on: CCRF-CEM leukemia
[7] = tested on: COLO 205 colon
[8] = tested on: DLD-1 colon
[9] = tested on: DMS 273 small cell lung
[10] = tested on: EKVX NSCLC
[11] = tested on: HCT-15 colon
[12] = tested on: HL-60(TB) leukemia
[13] = tested on: HOP-18 NSCLC
[14] = tested on: HOP-92 NSCLC
[15] = tested on: HT29 colon
[16] = tested on: IGROV1 ovarian
[17] = tested on: K-562 leukemia
[18] = tested on: KM12 colon
[19] = tested on: KM20L2 colon
[20] = tested on: LOX IMVI melanoma
[21] = tested on: LXFL 529 NSCLC
[22] = tested on: M14 melanoma
[23] = tested on: M19-MEL melanoma
[24] = tested on: MALME-3M melanoma
[25] = tested on: MOLT-4 leukemia
[26] = tested on: NCI-H23 lung
[27] = tested on: NCI-H460 lung
[28] = tested on: NCI-H522 lung
[29] = tested on: OVCAR-3 ovarian
[30] = tested on: OVCAR-4 ovarian
[31] = tested on: OVCAR-5 ovarian
[32] = tested on: OVCAR-8 ovarian
[33] = tested on: RPMI-8226 leukemia
[34] = tested on: RXF 393 renal
[35] = tested on: RXF-631 renal
[36] = tested on: SF-268 CNS
[37] = tested on: SF-295 CNS
[38] = tested on: SF-539 CNS
[39] = tested on: SK-MEL-2 melanoma
[40] = tested on: SK-MEL-28 melanoma
[41] = tested on: SK-MEL-5 melanoma
[42] = tested on: SK-OV-3 ovarian
[43] = tested on: SN12C renal
[44] = tested on: SNB-19 CNS
[45] = tested on: SNB-75 CNS
[46] = tested on: SW-620 colon
[47] = tested on: TK-10 renal
[48] = tested on: U251 CNS
[49] = tested on: UACC-62 melanoma
[50] = tested on: UO-31 renal
[51] = tested on: XF 498 CNS
[52] = tested on: DMS 114 small cell lung
[53] = tested on: HCT-116 colon
[54] = tested on: NCI-H226 lung
[55] = tested on: UACC-257 melanoma
[56] = tested on: HCC-2998 colon
[57] = tested on: HOP-62 NSCLC

CCCCCCCCNC(=O)SCCCC showed a TGI [1] greater than 100 µM, a TGI [2] greater than 100 µM and a TGI [3] greater than 100 µM. For the same molecule, the TGI [4] was greater than 100 µM, the TGI [5] was 61.9 µM and the TGI [6] was 69 µM. The TGI [7] was greater than 100 µM, the TGI [8] was greater than 100 µM and the TGI [9] was greater than 100 µM. The TGI [10] was 80.1 µM, the TGI [11] was greater than 100 µM and the TGI [12] was 43.7 µM. It also gave a TGI [13] greater than 100 µM, a TGI [14] of 49 µM and a TGI [15] of 59.4 µM. For the same molecule, the TGI [16] was greater than 100 µM, the TGI [17] was greater than 100 µM and the TGI [18] was greater than 100 µM. It also gave a TGI [19] greater than 100 µM, a TGI [20] of 39.2 µM and a TGI [21] greater than 100 µM. The TGI [22] was greater than 100 µM, the TGI [23] was greater than 100 µM and the TGI [24] was 63.1 µM. For the same molecule, the TGI [25] was 84.9 µM, the TGI [26] was greater than 100 µM and the TGI [27] was 82.2 µM. It also gave a TGI [28] of 76.7 µM, a TGI [29] greater than 100 µM and a TGI [30] greater than 100 µM. It also gave a TGI [31] greater than 100 µM, a TGI [32] greater than 100 µM and a TGI [33] of 58.7 µM. It also gave a TGI [34] of 68 µM, a TGI [35] greater than 100 µM and a TGI [36] greater than 100 µM. The TGI [37] was greater than 100 µM, the TGI [38] was greater than 100 µM and the TGI [39] was 56.2 µM. The TGI [40] was greater than 100 µM, the TGI [41] was 44.4 µM and the TGI [42] was greater than 100 µM. It also gave a TGI [43] greater than 100 µM, a TGI [44] of 87.9 µM and a TGI [45] of 68.8 µM. For the same molecule, the TGI [46] was greater than 100 µM, the TGI [47] was greater than 100 µM and the TGI [48] was greater than 100 µM. It also gave a TGI [49] greater than 100 µM, a TGI [50] of 65.1 µM and a TGI [51] of 37.5 µM.

CC(=O)Nc1cccc2[nH]c3ccccc3c(=O)c12 showed a TGI [1] of 51.1 µM, a TGI [2] of 29.6 µM and a TGI [3] of 55.6 µM. The TGI [4] was 52.3 µM, the TGI [5] was 45.3 µM and the TGI [6] was greater than 100 µM. The TGI [7] was 34 µM, the TGI [8] was 53.6 µM and the TGI [52] was 79.6 µM. The TGI [9] was greater than 100 µM, the TGI [10] was 78.6 µM and the TGI [53] was 28.6 µM. It also gave a TGI [11] of 42.7 µM, a TGI [12] of 39.8 µM and a TGI [13] of 38.6 µM. It also gave a TGI [15] of 40.9 µM, a TGI [16] of 70.3 µM and a TGI [17] greater than 100 µM. The TGI [18] was 41.2 µM, the TGI [19] was 83.3 µM and the TGI [22] was greater than 100 µM. The TGI [23] was 51.1 µM, the TGI [24] was 50.1 µM and the TGI [25] was greater than 100 µM. For the same molecule, the TGI [54] was 40.5 µM, the TGI [26] was 29.5 µM and the TGI [27] was 43.2 µM. For the same molecule, the TGI [28] was 26.2 µM, the TGI [29] was 39.5 µM and the TGI [30] was 65.1 µM. The TGI [31] was 54.2 µM, the TGI [32] was 45.1 µM and the TGI [33] was 43.8 µM. The TGI [35] was 94.8 µM, the TGI [36] was 95.4 µM and the TGI [37] was 51.1 µM. It also gave a TGI [38] of 63.7 µM, a TGI [39] of 38.7 µM and a TGI [40] of 92.3 µM. It also gave a TGI [41] of 30.4 µM, a TGI [42] of 67.4 µM and a TGI [43] greater than 100 µM. The TGI [44] was 64.1 µM, the TGI [45] was 65.9 µM and the TGI [46] was 58.3 µM. The TGI [47] was 50.1 µM, the TGI [48] was 75.5 µM and the TGI [55] was 58.3 µM. The TGI [49] was 31.1 µM, the TGI [50] was 32.7 µM and the TGI [51] was 50.2 µM.

Work on CC1(C)C(=NNC(=S)NN)C(C)(C)C1=NNC(=S)NN yielded a TGI [1] greater than 100 µM, a TGI [3] greater than 100 µM and a TGI [4] greater than 100 µM. It also gave a TGI [5] greater than 100 µM, a TGI [6] greater than 100 µM and a TGI [7] greater than 100 µM. For the same molecule, the TGI [8] was greater than 100 µM, the TGI [52] was greater than 100 µM and the TGI [10] was greater than 100 µM. It also gave a TGI [56] greater than 100 µM, a TGI [57] greater than 100 µM and a TGI [14] greater than 100 µM. It also gave a TGI [15] greater than 100 µM, a TGI [16] greater than 100 µM and a TGI [17] greater than 100 µM. For the same molecule, the TGI [19] was greater than 100 µM, the TGI [20] was greater than 100 µM and the TGI [22] was greater than 100 µM. The TGI [23] was greater than 100 µM, the TGI [24] was greater than 100 µM and the TGI [54] was greater than 100 µM. The TGI [26] was greater than 100 µM, the TGI [28] was greater than 100 µM and the TGI [29] was greater than 100 µM. For the same molecule, the TGI [30] was greater than 100 µM, the TGI [31] was greater than 100 µM and the TGI [32] was greater than 100 µM. It also gave a TGI [33] greater than 100 µM, a TGI [34] greater than 100 µM and a TGI [35] greater than 100 µM. The TGI [36] was greater than 100 µM, the TGI [37] was greater than 100 µM and the TGI [38] was greater than 100 µM. The TGI [39] was greater than 100 µM, the TGI [40] was greater than 100 µM and the TGI [41] was greater than 100 µM. It also gave a TGI [42] greater than 100 µM, a TGI [43] greater than 100 µM and a TGI [44] greater than 100 µM. For the same molecule, the TGI [45] was greater than 100 µM, the TGI [46] was greater than 100 µM and the TGI [47] was greater than 100 µM. It also gave a TGI [55] greater than 100 µM, a TGI [49] greater than 100 µM and a TGI [51] greater than 100 µM.
